Source: article PMC10786919, “Design-rules for stapled peptides with in vivo activity and their application to Mdm2/X antagonists” (Nature Communications, 2024)
Converted amounts (≈) assume the structure as drawn. Where two headings read alike, the source gives them in different places. Positions of bridges follow the written chain, without caps; N, C: chain ends. Non-standard residues stand in square brackets, D forms with d. Residues, ends and D or L forms follow the SMILES beside them. Lys(N3) = [N-]=[N+]=NCCCC[C@H](N)C(=O)O; R8 = C=CCCCCCC[C@@](C)(N)C(=O)O; Cha = N[C@@H](CC1CCCCC1)C(=O)O; R5 = C=CCCC[C@@](C)(N)C(=O)O; S5 = C=CCCC[C@](C)(N)C(=O)O; Ahx = NCCCCCC(=O)O

What was measured:
[1] = system: p53 responsive β-lactamase reporter in HCT116 cells; experiment: cells; format: cell-based; conditions: 0% FBS 4Hr
Experimental: HCT116 cells were stably transfected with a p53 responsive β-lactamase reporter and expanded in McCoy’s 5 A Medium with 10% fetal bovine serum (FBS), Blasticidin, and Penicillin/Streptomycin and then transferred to 1.5 ml freezing vials and stored under liquid nitrogen in growth media containing 5% DMSO. […] The cells were then seeded into a 384-well plate at a density of 8000 cells per well. […] The final working concentration of DMSO was 0.5%. β-lactamase activity was detected using the ToxBLAzer Dual Screen (Invitrogen), as per the manufacturer’s instructions. Measurements were made using the Envision multiplate reader (Perkin–Elmer). […] Measurements were taken a minimum of three times (biological replicates) and values are reported as geometric means of the replicates.

[2] = Experimental LogD (partition coefficient); conditions: not stated, Partition Coeff LogD
[3] = Solubility assay (kinetic solubility, PBS pH 7); format: physicochemical; conditions: pH 7, aqueous buffer, kinetic from dmso stock, pH 7, PBS; read-out: Solubility
In short: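 Next, measure peak areas of sample and standard. Finally, multiply their ratio by the standard concentration to obtain solubility (µM).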

[4] = Lactate dehydrogenase (LDH) release assay; format: cell-based; conditions: LDH: Cytotoxicity assay: EC50
In short: (§1)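 HCT116 cells stably carrying a p53-responsive β-lactamase reporter were seeded at 8000 cells per well with a final DMSO level of 0.5%. Membrane integrity was assessed by lactate dehydrogenase release using a homogeneous fluorometric kit. Values are geometric means of at least three biological replicates.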

HCT116 cells = experiment: Lactate dehydrogenase (LDH) release assay; format: cell-based
In short: as §1

in vitro = conditions: Nanoclick permeability assay EC50
In short: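 Azido-peptide permeability was read as loss of NanoBRET signal (donor 450 nm, acceptor 610 nm) after adding NanoBret618-azide at 10 μM final.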

[5] = read-out: p53 reporter assay EC50
[6] = read-out: p53 reporter assay: EC50

Compound	EC50 [1, 5]	EC50 [1, 6]	also measured
CC(=O)N[C@@H](CCCCN)C(=O)N[C@@H](CCCCN)C(=O)NCCCCCC(=O)N[C@H](C(=O)N[C@@H](CO)C(=O)N[C@@H](C)C(=O)N[C@]1(C)CCCCCCC=CCCC[C@@](C)(C(=O)N[C@@H](CCC(=O)O)C(=O)N[C@@H](CC(N)=O)C(=O)N[C@@H](Cc2ccccc2)C(N)=O)NC(=O)[C@H](CC(C)C)NC(=O)[C@H](CC(C)C)NC(=O)[C@H](C)NC(=O)[C@H](Cc2c[nH]c3ccccc23)NC(=O)[C@H](Cc2ccc(O)cc2)NC(=O)[C@H](CCC(=O)O)NC1=O)[C@@H](C)O [MP-069] (Ac-KK[Ahx]TSA[R8]EYWALL[S5]ENF-NH2; staple 7-14)	> 50 µM		
CC(=O)N[C@H](C(=O)N[C@@H](CO)C(=O)N[C@@H](Cc1ccccc1)C(=O)N[C@]1(C)CCCC=CCCC[C@](C)(C(=O)N[C@@H](CC(C)C)C(=O)N[C@@H](CC(C)C)C(=O)N2CCC[C@H]2C(=O)N[C@@H](CCC(=O)O)C(=O)N[C@@H](CC(N)=O)C(=O)N[C@@H](Cc2ccc(O)cc2)C(N)=O)NC(=O)[C@H](Cc2c[nH]c3ccccc23)NC(=O)[C@H](Cc2ccc(O)cc2)NC(=O)[C@H](CCC(=O)O)NC1=O)[C@@H](C)O [MP-2082] (Ac-TSF[R5]EYW[R5]LLPENY-NH2; staple 4-8)		43 µM	
CC(=O)N[C@@H](CCCCN)C(=O)NCCCCCC(=O)N[C@H](C(=O)N[C@@H](CO)C(=O)N[C@@H](Cc1ccccc1)C(=O)N[C@]1(C)CCCCCC/C=C\CCC[C@@](C)(C(=O)N[C@@H](CCC(=O)O)C(=O)N[C@@H](CC(N)=O)C(=O)N[C@@H](Cc2ccccc2)C(N)=O)NC(=O)[C@H](CC(C)C)NC(=O)[C@H](CC(C)C)NC(=O)[C@H](C)NC(=O)[C@H](Cc2c[nH]c3ccccc23)NC(=O)[C@H](Cc2ccc(O)cc2)NC(=O)[C@H](CCC(=O)O)NC1=O)[C@@H](C)O [MP-2094]		6.49 µM	
CC(=O)N[C@H](C(=O)N[C@@H](CO)C(=O)N[C@@H](Cc1ccccc1)C(=O)N[C@]1(C)CCCCCCC=CCCC[C@@](C)(C(=O)N[C@H](CCC(=O)O)C(=O)N[C@@H](CC(N)=O)C(=O)N[C@@H](Cc2ccccc2)C(N)=O)NC(=O)[C@H](CC(C)C)NC(=O)[C@H](CC(C)C)NC(=O)[C@H](C)NC(=O)[C@H](Cc2c[nH]c3ccccc23)NC(=O)[C@H](Cc2ccc(O)cc2)NC(=O)[C@H](CCC(=O)O)NC1=O)[C@@H](C)O [MP-092]		6.33 µM	
CC(=O)N[C@@H](CCCCN)C(=O)NCCCCCC(=O)N[C@H](C(=O)N[C@@H](CO)C(=O)N[C@@H](C)C(=O)N[C@]1(C)CCCCCCC=CCCC[C@@](C)(C(=O)N[C@@H](CCC(=O)O)C(=O)N[C@@H](CC(N)=O)C(=O)N[C@@H](Cc2ccccc2)C(N)=O)NC(=O)[C@H](CC(C)C)NC(=O)[C@H](CC(C)C)NC(=O)[C@H](C)NC(=O)[C@H](Cc2c[nH]c3ccccc23)NC(=O)[C@H](Cc2ccc(O)cc2)NC(=O)[C@H](CCC(=O)O)NC1=O)[C@@H](C)O [MP-068] (Ac-K[Ahx]TSA[R8]EYWALL[S5]ENF-NH2; staple 6-13)	> 50 µM		
CC(=O)N[C@@H](CCCCN)C(=O)NCCCCCC(=O)N[C@H](C(=O)N[C@@H](CO)C(=O)N[C@@H](Cc1ccccc1)C(=O)N[C@]1(C)CCCCCCCCCCC[C@@](C)(C(=O)N[C@@H](CCC(=O)O)C(=O)N[C@@H](CC(N)=O)C(=O)N[C@@H](Cc2ccccc2)C(N)=O)NC(=O)[C@H](CC(C)C)NC(=O)[C@H](CC(C)C)NC(=O)[C@H](C)NC(=O)[C@H](Cc2c[nH]c3ccccc23)NC(=O)[C@H](Cc2ccc(O)cc2)NC(=O)[C@H](CCC(=O)O)NC1=O)[C@@H](C)O [MP-049]	8.74 µM		
CC(=O)N[C@H](C(=O)N[C@@H](CO)C(=O)N[C@@H](C)C(=O)N[C@]1(C)CCCCCCC=CCCC[C@@](C)(C(N)=O)NC(=O)[C@H](CC(C)C)NC(=O)[C@H](CC(C)C)NC(=O)[C@H](C)NC(=O)[C@H](Cc2c[nH]c3ccccc23)NC(=O)[C@H](Cc2ccc(O)cc2)NC(=O)[C@H](CCC(=O)O)NC1=O)[C@@H](C)O [MP-067] (Ac-TSA[R8]EYWALL[S5]-NH2; staple 4-11)	> 50 µM		
CC(=O)N[C@H](C(=O)N[C@@H](CO)C(=O)N[C@@H](Cc1ccccc1)C(=O)N[C@]1(C)CCCCCCC=CCCC[C@@](C)(C(N)=O)NC(=O)[C@H](CC2CCCCC2)NC(=O)[C@H](CC(C)C)NC(=O)[C@H](C)NC(=O)[C@H](Cc2c[nH]c3ccccc23)NC(=O)[C@H](Cc2ccc(O)cc2)NC(=O)[C@H](CCC(=O)O)NC1=O)[C@@H](C)O [MP-064] (Ac-TSF[R8]EYWAL[Cha][S5]-NH2; staple 4-11)	0.89 µM		
CC(=O)N[C@H](C(=O)N[C@@H](CO)C(=O)N[C@@H](Cc1ccccc1)C(=O)N[C@]1(C)CCCC=CCCC[C@](C)(C(=O)N[C@@H](CC(C)C)C(=O)N[C@@H](CC(C)C)C(=O)N2CCC[C@H]2C(=O)N[C@@H](CCC(=O)O)C(=O)N[C@@H](CC(N)=O)C(=O)N[C@@H](Cc2ccccc2)C(N)=O)NC(=O)[C@H](Cc2c[nH]c3ccccc23)NC(=O)[C@H](Cc2ccc(O)cc2)NC(=O)[C@H](CCC(=O)O)NC1=O)[C@@H](C)O [MP-078] (Ac-TSF[R5]EYW[R5]LLPENF-NH2; staple 4-8)		37.7 µM	
CC(=O)N[C@H](C(=O)N[C@@H](CO)C(=O)N[C@@H](Cc1ccccc1)C(=O)N[C@]1(C)CCCCCCC=CCCC[C@@](C)(C(=O)N[C@@H](CCC(=O)O)C(=O)N[C@@H](CC(N)=O)C(N)=O)NC(=O)[C@H](CC(C)C)NC(=O)[C@H](CC(C)C)NC(=O)[C@H](C)NC(=O)[C@H](Cc2c[nH]c3ccccc23)NC(=O)[C@H](Cc2ccc(O)cc2)NC(=O)[C@H](CCC(=O)O)NC1=O)[C@@H](C)O [MP-086]		17.4 µM	
CC(=O)N[C@H](C(=O)N[C@@H](CO)C(=O)N[C@@H](Cc1ccccc1)C(=O)N[C@]1(C)CCCC=CCCC[C@](C)(C(=O)N[C@@H](CC(C)C)C(=O)N[C@@H](CC(C)C)C(=O)N[C@@H](CO)C(=O)N[C@@H](CCC(=O)O)C(=O)N[C@@H](CC(N)=O)C(N)=O)NC(=O)[C@H](Cc2c[nH]c3ccccc23)NC(=O)[C@H](Cc2ccc(O)cc2)NC(=O)[C@H](CCC(=O)O)NC1=O)[C@@H](C)O [MP-2087] (Ac-TSF[R5]EYW[R5]LLSEN-NH2; staple 4-8)		24.7 µM	
CC(=O)N[C@@H](CCCCN)C(=O)N[C@@H](CCCCN)C(=O)N[C@@H](CCCCN)C(=O)NCCCCCC(=O)N[C@H](C(=O)N[C@@H](CO)C(=O)N[C@@H](C)C(=O)N[C@]1(C)CCCCCCC=CCCC[C@@](C)(C(=O)N[C@@H](CCC(=O)O)C(=O)N[C@@H](CC(N)=O)C(=O)N[C@@H](Cc2ccccc2)C(N)=O)NC(=O)[C@H](CC(C)C)NC(=O)[C@H](CC(C)C)NC(=O)[C@H](C)NC(=O)[C@H](Cc2c[nH]c3ccccc23)NC(=O)[C@H](Cc2ccc(O)cc2)NC(=O)[C@H](CCC(=O)O)NC1=O)[C@@H](C)O [MP-070] (Ac-KKK[Ahx]TSA[R8]EYWALL[S5]ENF-NH2; staple 8-15)	> 50 µM		
CC(=O)N[C@H](C(=O)N[C@@H](CO)C(=O)N[C@@H](Cc1ccccc1)C(=O)N[C@]1(C)CCCCCCCCCCC[C@@](C)(C(N)=O)NC(=O)[C@H](CC(C)C)NC(=O)[C@H](CC(C)C)NC(=O)[C@H](C)NC(=O)[C@H](Cc2c[nH]c3ccccc23)NC(=O)[C@H](Cc2ccc(O)cc2)NC(=O)[C@H](CCC(=O)O)NC1=O)[C@@H](C)O [MP-089]		1.23 µM	
CC(=O)N[C@H](C(=O)N[C@@H](CO)C(=O)N[C@@H](Cc1ccccc1)C(=O)N[C@]1(C)CCCCCCC=CCCC[C@@](C)(C(=O)N[C@@H](CCC(=O)O)C(=O)N[C@@H](CC(N)=O)C(=O)N[C@H](Cc2ccccc2)C(N)=O)NC(=O)[C@H](CC(C)C)NC(=O)[C@H](CC(C)C)NC(=O)[C@H](C)NC(=O)[C@H](Cc2c[nH]c3ccccc23)NC(=O)[C@H](Cc2ccc(O)cc2)NC(=O)[C@H](CCC(=O)O)NC1=O)[C@@H](C)O [MP-091]		5.28 µM	
CC(=O)N[C@@H](CCCCN)C(=O)N[C@@H](CCCCN)C(=O)N[C@@H](CCCCN)C(=O)NCCCCCC(=O)N[C@H](C(=O)N[C@@H](CO)C(=O)N[C@@H](CC(C)C)C(=O)N[C@]1(C)CCCCCCC=CCCC[C@@](C)(C(=O)N[C@@H](CCC(=O)O)C(=O)N[C@@H](CC(N)=O)C(=O)N[C@@H](Cc2ccccc2)C(N)=O)NC(=O)[C@H](Cc2c[nH]c3ccccc23)NC(=O)[C@H](CC(C)C)NC(=O)[C@H](C)NC(=O)[C@H](Cc2ccccc2)NC(=O)[C@H](Cc2ccc(O)cc2)NC(=O)[C@H](CCC(=O)O)NC1=O)[C@@H](C)O [MP-075] (Ac-KKK[Ahx]TSL[R8]EYFALW[S5]ENF-NH2; staple 8-15)		> 50 µM	
CC(C)C[C@@H]1NC(=O)[C@H](C)NC(=O)[C@H](Cc2c[nH]c3ccccc23)NC(=O)[C@H](Cc2ccc(O)cc2)NC(=O)[C@H](CCC(=O)O)NC(=O)[C@](C)(NC(=O)[C@H](Cc2ccccc2)NC(=O)[C@H](CO)NC(=O)[C@@H](NC(=O)[C@H](CO)NC(=O)CNC(=O)[C@H](CO)NC(=O)[C@H](CCCCN=[N+]=[N-])NC(=O)[C@H](CCC(=O)O)NC(=O)[C@@H](N)CCC(=O)O)[C@@H](C)O)CCCCCCC=CCCC[C@@](C)(C(N)=O)NC(=O)[C@H](CC(C)C)NC1=O [MP-0181] (H-EE[Lys(N3)]SGSTSF[R8]EYWALL[S5]-NH2; staple 10-17)			logD [2]: 2.05; solubility kinetic [3]: 106 µM (≈ 219 µg/mL); EC50 [4]: > 50.6 µM; LDH: Cytotoxicity assay: % Effect (HCT116 cells): 9.12%; cell entry EC50 (in vitro): 2.07 µM
